In publication PMC8425678, “1-Oxo-3,4-dihydroisoquinoline-4-carboxamides as novel druglike inhibitors of poly(ADP-ribose) polymerase (PARP) with favourable ADME characteristics” (Journal of Enzyme Inhibition and Medicinal Chemistry, 2021):
“Also recorded” adds a separate entry of the source.

What was measured:
[1] = target: T1, PARP1 (Homo sapiens, UniProt P09874); test: PARP1 colorimetric activity assay kit (BPS Bioscience); format: biochemical; settings: for inhibition at 1 µM: read-out: PARP1 % inhibition at 1 µM, 1 µM compound, triplicate (n = 3); for IC50: dose-response, mean (n = 3) ± SD, r^2 in brackets
T1 construct: purchased BPS Bioscience (San Diego, CA)
Protocol: (§1) The thirty-six 1-oxo-3,4-dihydroisoquinoline-4-carboxamides 3a-aj and 1-oxoisoquinoline-4-carboxamide 11 were tested for inhibitory activity towards PARP1 and PARP2 using the commercially available colorimetric activity assay kit from BPS Bioscience (San Diego, CA) in full accordance of the supplier’s method description[13]^,[14]. The initial screening was performed against PARP1 at 1 µM concentration of each compound, in triplicate (n = 3) measurements.

[2] = target: T2, PARP2 (Homo sapiens, UniProt Q9UGN5); test: PARP2 colorimetric activity assay kit (BPS Bioscience); format: biochemical; settings: for IC50: dose-response, mean (n = 3) ± SD, r^2 in brackets
T2 construct: purchased BPS Bioscience (San Diego, CA)
Protocol: as §1

T1 sequence (P09874 whole entry): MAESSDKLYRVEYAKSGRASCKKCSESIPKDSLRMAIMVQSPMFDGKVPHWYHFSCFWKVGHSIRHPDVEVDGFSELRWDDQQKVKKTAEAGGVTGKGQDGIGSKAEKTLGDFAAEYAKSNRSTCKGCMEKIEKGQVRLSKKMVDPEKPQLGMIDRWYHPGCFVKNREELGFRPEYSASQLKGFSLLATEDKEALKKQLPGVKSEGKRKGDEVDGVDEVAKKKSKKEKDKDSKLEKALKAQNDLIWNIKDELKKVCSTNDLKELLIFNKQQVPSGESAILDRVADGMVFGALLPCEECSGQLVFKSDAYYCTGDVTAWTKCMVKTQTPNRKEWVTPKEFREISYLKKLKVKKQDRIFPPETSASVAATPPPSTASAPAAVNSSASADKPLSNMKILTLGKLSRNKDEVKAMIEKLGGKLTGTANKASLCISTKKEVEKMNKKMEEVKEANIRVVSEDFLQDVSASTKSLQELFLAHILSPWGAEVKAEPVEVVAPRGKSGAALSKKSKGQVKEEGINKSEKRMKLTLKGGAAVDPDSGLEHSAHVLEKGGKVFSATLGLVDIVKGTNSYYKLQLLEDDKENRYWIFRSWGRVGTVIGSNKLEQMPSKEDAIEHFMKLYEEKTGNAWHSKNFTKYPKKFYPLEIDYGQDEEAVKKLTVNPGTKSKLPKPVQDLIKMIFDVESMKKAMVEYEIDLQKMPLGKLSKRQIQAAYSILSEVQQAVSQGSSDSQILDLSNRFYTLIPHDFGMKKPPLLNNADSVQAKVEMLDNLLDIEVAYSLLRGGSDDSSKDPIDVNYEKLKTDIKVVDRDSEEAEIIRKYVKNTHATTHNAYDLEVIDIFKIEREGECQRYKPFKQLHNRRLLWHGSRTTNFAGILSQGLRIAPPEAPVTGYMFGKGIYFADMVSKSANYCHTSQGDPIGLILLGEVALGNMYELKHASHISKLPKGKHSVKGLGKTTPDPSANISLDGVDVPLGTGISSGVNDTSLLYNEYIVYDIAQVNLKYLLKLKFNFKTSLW
T2 sequence (Q9UGN5 whole entry): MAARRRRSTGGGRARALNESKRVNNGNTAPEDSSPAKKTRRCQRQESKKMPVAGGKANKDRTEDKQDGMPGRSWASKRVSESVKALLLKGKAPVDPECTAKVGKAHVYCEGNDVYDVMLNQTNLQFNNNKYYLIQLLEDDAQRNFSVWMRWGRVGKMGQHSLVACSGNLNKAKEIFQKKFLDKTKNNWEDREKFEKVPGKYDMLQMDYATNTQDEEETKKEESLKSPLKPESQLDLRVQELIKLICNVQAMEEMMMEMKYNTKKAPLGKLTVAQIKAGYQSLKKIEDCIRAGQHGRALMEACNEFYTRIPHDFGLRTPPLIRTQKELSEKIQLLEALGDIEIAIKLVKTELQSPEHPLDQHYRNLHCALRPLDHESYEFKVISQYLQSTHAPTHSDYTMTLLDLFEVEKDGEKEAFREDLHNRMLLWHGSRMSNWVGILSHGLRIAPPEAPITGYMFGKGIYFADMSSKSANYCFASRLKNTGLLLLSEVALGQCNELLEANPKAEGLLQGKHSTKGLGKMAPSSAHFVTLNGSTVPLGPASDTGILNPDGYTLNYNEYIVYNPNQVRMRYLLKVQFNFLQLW

inhibition at 1 µM [1] [%]	SMILES	also measured
26.3 ± 7.7	CCOC(=O)N1CCN(C(=O)C2CNC(=O)c3ccccc32)CC1 (stereo not drawn) [Compound 3a, Ethyl 4–(1-oxo-1,2,3,4-tetrahydroisoquinoline-4-carbonyl)piperazine-1-carboxylate]	
81.9 ± 1.8	O=C1NCC(C(=O)N2CCC(N3CCC(F)(F)CC3)CC2)c2ccc(F)cc21 (stereo not drawn) [Compound 3ah, 4–(4,4-Difluoro-[1,4'-bipiperidine]-1'-carbonyl)-7-fluoro-3,4-dihydroisoquinolin-1(2H)-one]	IC50 [1]: 0.371 ± 0.042 µM; SI, selectivity index (PARP2 over PARP1) [2]: 4.46; IC50 [2]: 0.0831 ± 0.0069 µM
93.7 ± 0.8	O=C1NCC(C(=O)N2CCC(N3CCC(F)CC3)CC2)c2ccc(F)cc21 (stereo not drawn) [Compound 3ai, 7-Fluoro-4–(4-fluoro-[1,4'-bipiperidine]-1'-carbonyl)-3,4-dihydroisoquinolin-1(2H)-one]	IC50 [1]: 0.148 ± 0.017 µM; SI, selectivity index (PARP2 over PARP1) [2]: 3.52; IC50 [2]: 0.042 ± 0.0023 µM
42.7 ± 0.9	CC1CCN(C(=O)C2CNC(=O)c3ccccc32)CC1 (stereo not drawn) [Compound 3b, 4–(4-Methylpiperidine-1-carbonyl)-3,4-dihydroisoquinolin-1(2H)-one]	
18.6 ± 13.2	CN(Cc1ccccc1)C(=O)C1CNC(=O)c2ccccc21 (stereo not drawn) [Compound 3c, N-Benzyl-N-methyl-1-oxo-1,2,3,4-tetrahydroisoquinoline-4-carboxamide]	melting point: 148 to 149 °C
7.4 ± 8.7	O=C1NCC(C(=O)NCc2ccc(Cl)cc2)c2ccccc21 (stereo not drawn) [Compound 3d, N-(4-Chlorobenzyl)-1-oxo-1,2,3,4-tetrahydroisoquinoline-4-carboxamide]	
56 ± 7.5	O=C1NCC(C(=O)N2CCc3ccccc3C2)c2ccccc21 (stereo not drawn) [Compound 3e, 4–(1,2,3,4-Tetrahydroisoquinoline-2-carbonyl)-3,4-dihydroisoquinolin-1(2H)-one]	melting point: 222 to 223 °C
26.2 ± 9.7	CCN1CCN(C(=O)C2CNC(=O)c3ccccc32)CC1 (stereo not drawn) [Compound 3f, 4–(4-ethylpiperazine-1-carbonyl)-3,4-dihydroisoquinolin-1(2H)-one]	
47.6 ± 4.1	CCOC(=O)C1CCN(C(=O)C2CNC(=O)c3ccccc32)CC1 (stereo not drawn) [Compound 3g, Ethyl 1–(1-oxo-1,2,3,4-tetrahydroisoquinoline-4-carbonyl)piperidine-4-carboxylate]	melting point: 120 to 121 °C
57.6 ± 5.8	O=C1NCC(C(=O)N2CCOCC2)c2ccccc21 (stereo not drawn) [Compound 3j, 4-(Morpholine-4-carbonyl)-3,4-dihydroisoquinolin-1(2H)-one]	
31.2 ± 3.4	O=C1NCC(C(=O)N2CCCC2)c2ccccc21 (stereo not drawn) [Compound 3m, 4-(Pyrrolidine-1-carbonyl)-3,4-dihydroisoquinolin-1(2H)-one]	
35.4 ± 5.1	O=C1NCC(C(=O)N2CCCCCC2)c2ccccc21 (stereo not drawn) [Compound 3n, 4-(Azepane-1-carbonyl)-3,4-dihydroisoquinolin-1(2H)-one]	
28.5 ± 7.1	O=C1NCC(C(=O)N2CCC3(CCCCO3)CC2)c2ccccc21 (stereo not drawn) [Compound 3r, 4–(1-Oxa-9-azaspiro[5.5]undecane-9-carbonyl)-3,4-dihydroisoquinolin-1(2H)-one]	
43.3 ± 5.9	O=C1NCC(C(=O)N2CCN(Cc3ccc(F)cc3)CC2)c2ccccc21 (stereo not drawn) [Compound 3t, 4–(4–(4-Fluorobenzyl)piperazine-1-carbonyl)-3,4-dihydroisoquinolin-1(2H)-one]	
31.9 ± 2	O=C1NCC(C(=O)N2CCN(Cc3ccccc3F)CC2)c2ccccc21 (stereo not drawn) [Compound 3u, 4–(4-(2-Fluorobenzyl)piperazine-1-carbonyl)-3,4-dihydroisoquinolin-1(2H)-one]	
33.2 ± 4.8	O=C1NCC(C(=O)N2CCC(N3CCOCC3)CC2)c2ccccc21 (stereo not drawn) [Compound 3v, 4–(4-Morpholinopiperidine-1-carbonyl)-3,4-dihydroisoquinolin-1(2H)-one]	PARP1 inhibitory potency in words ([1]; compared with 3l): significantly less potent; also recorded: inactive
66.9 ± 1.5	O=C1NCC(C(=O)N2CCNCC2)c2ccccc21 (stereo not drawn) [Compound 3w, 4-(Piperazine-1-carbonyl)-3,4-dihydroisoquinolin-1(2H)-one]	
